Measurements: PMC4344907 (International journal of pharmaceutics, 2014)
Where “and” joins values, the source holds several entries; their conditions need not be identical. Equal values may be shown once. Each block holds one molecule with its values, some of them ahead of it. Where a SMILES comes first, the peptide text is derived from it. [ ]: non-standard residue; d: D form. Sar = CNCC(=O)O

Columns and labels:
MRP2 [1] = target: T1, MRP2 (Homo sapiens, UniProt Q92887); assay: Non-radiolabelled uptake of Val-Ile-LPV in MDCK-MRP2 cells with MRP2 inhibitor; type: cell-based; details: DPBS pH 7.4, 37 °C
metabolizing enzymes [2] = details: liver microsomes; ref Agarwal et al., 2008; cited from earlier work
MDCK-WT cells = assay: Cytotoxicity, MTS based assay, 4 h incubation; type: cell-based
peptide transporters [3] = assay: [3H]-GlySar uptake in MDCK-MRP2 cells; type: cell-based; details: cold GlySar 10 mM, DPBS pH 7.4, 37 °C
peptide transporters [4] = assay: [3H]-GlySar uptake in MDCK-MDR1 cells; type: cell-based; details: cold GlySar 10 mM, DPBS pH 7.4, 37 °C
MDCK-MDR1 cells = details: ref Patel et al., 2014b; cited from earlier work
[5] = A-B transepithelial transport across Caco2 cells; type: in vitro ADME; details: human, Caco-2, pH 5
metabolizing enzymes [6] = assay: Concentration dependent degradation in rat liver microsomes; type: in vitro ADME; details: rat liver microsomes 0.3 mg/mL, 5 min, Michaelis-Menten fit
[7] = A-B transepithelial transport across MDCK-MDR1 cells; type: in vitro ADME; details: dog, MDCK-MDR1, pH 7.4
MDCK-MRP2 cells = details: ref Patel et al., 2014b; cited from earlier work
MRP2 [8] = target: T1, MRP2; assay: [3H]-LPV cellular uptake in MDCK-MRP2 cells; type: cell-based; details: compound 50 μM, DPBS pH 7.4, 37 °C, 30 min
P-gp = P-gp (Homo sapiens, UniProt P08183); assay: [3H]-LPV cellular uptake in MDCK-MDR1 cells; type: cell-based; details: compound 50 μM, DPBS pH 7.4, 37 °C, 30 min
[9] = A-B transepithelial transport across MDCK-MRP2 cells; type: in vitro ADME; details: dog, pH 7.4
metabolizing enzymes [10] = assay: Time dependent degradation in rat liver microsomes; type: in vitro ADME; details: rat liver microsomes 0.3 mg/mL, 25 μM, 37 °C, 2 h

T1 sequence (Q92887 whole entry): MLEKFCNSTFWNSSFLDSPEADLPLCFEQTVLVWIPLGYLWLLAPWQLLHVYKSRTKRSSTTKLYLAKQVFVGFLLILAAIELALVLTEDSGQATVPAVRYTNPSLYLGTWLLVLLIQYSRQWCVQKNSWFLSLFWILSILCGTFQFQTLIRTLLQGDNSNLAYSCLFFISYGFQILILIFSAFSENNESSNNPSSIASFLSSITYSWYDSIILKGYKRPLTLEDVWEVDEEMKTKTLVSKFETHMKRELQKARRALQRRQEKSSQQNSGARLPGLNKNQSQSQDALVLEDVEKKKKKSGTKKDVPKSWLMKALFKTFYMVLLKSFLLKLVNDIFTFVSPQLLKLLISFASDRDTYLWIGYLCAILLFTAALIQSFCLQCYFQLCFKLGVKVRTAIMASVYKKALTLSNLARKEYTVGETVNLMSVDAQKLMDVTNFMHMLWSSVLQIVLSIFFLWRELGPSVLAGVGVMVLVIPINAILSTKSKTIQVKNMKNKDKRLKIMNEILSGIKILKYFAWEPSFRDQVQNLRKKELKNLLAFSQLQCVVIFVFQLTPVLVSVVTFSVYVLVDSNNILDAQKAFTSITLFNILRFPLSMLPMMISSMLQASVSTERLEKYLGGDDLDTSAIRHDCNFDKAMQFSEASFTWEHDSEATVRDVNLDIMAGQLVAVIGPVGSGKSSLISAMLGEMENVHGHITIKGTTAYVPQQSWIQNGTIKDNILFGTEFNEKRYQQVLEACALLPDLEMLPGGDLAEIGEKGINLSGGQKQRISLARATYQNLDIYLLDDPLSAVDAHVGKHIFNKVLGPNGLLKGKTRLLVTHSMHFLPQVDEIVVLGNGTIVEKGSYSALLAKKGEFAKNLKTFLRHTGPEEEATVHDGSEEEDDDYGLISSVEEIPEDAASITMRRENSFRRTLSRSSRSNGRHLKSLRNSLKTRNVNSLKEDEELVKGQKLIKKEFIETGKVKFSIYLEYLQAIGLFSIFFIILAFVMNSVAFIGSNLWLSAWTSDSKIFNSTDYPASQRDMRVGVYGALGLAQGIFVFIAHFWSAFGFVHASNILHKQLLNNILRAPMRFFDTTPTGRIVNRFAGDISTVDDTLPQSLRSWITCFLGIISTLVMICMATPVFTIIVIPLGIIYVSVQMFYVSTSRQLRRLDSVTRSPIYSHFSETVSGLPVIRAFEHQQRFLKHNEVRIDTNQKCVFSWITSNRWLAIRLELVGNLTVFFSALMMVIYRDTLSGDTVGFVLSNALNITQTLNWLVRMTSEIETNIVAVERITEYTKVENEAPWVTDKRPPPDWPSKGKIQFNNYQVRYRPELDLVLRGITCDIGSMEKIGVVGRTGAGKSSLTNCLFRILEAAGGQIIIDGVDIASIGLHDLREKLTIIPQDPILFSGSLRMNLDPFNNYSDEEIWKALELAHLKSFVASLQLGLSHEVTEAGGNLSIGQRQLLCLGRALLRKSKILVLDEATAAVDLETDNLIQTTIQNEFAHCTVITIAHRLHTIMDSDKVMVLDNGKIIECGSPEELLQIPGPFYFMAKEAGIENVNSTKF
P-gp, sequence (P08183 whole entry): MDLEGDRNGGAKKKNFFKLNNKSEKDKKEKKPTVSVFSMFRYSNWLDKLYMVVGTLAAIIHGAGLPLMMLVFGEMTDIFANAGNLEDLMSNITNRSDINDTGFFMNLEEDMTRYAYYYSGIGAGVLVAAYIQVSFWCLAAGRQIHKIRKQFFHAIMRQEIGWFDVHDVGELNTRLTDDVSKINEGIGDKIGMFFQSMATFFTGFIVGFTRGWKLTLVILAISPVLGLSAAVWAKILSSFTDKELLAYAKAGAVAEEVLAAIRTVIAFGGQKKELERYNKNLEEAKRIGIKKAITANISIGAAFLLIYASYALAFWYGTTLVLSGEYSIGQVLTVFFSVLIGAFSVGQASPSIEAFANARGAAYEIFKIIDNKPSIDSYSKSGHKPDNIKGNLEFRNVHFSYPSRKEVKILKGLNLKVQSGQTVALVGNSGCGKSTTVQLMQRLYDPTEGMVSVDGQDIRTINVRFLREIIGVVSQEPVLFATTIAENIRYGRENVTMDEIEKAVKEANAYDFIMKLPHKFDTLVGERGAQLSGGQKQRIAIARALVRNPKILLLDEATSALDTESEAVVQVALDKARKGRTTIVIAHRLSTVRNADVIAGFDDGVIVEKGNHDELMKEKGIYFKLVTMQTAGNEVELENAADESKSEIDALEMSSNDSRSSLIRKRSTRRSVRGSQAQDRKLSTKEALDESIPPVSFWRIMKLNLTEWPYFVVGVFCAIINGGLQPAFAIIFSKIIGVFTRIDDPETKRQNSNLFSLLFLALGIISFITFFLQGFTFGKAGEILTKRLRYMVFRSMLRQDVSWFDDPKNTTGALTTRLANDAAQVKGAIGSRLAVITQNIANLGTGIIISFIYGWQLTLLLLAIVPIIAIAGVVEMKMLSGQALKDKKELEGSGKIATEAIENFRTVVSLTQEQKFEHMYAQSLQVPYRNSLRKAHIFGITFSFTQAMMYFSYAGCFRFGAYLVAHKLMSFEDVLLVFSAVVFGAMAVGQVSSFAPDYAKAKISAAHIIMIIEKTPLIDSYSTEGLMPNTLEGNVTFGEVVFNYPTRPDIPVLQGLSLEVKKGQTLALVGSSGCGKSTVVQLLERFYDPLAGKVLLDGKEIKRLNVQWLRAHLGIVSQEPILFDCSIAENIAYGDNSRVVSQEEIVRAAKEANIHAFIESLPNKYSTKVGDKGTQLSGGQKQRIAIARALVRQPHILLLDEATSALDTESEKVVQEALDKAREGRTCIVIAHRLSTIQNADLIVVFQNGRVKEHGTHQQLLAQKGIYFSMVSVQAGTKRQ

- Uptake as % control (Val-Ile-LPV) (MRP2 [1]; uptake of Val-Ile-LPV 50 μM in the presence of MK 571 25 μM): 104 ± 4 % control
- Uptake as % control (Val-Ile-LPV) (MRP2 [1]; uptake of Val-Ile-LPV 50 μM in the presence of MK 571 75 μM): 102 ± 2 % control
Molecule: CN(C)C(=O)CCSC(SCCC(=O)O)c1cccc(/C=C/c2ccc3ccc(Cl)cc3n2)c1 (centres unmarked) [MK 571]

Molecule: Cc1cccc(C)c1OCC(=O)NC(Cc1ccccc1)C(CC(Cc1ccccc1)NC(=O)C(C(C)C)N1CCCNC1=O)OC(=O)C(NC(=O)C(N)C(C)C)C(C)C (centres unmarked) [valine-valine-LPV]
- Metabolic stability, fold increase relative to LPV (metabolizing enzymes [2]): 1.48 fold

Molecule: Triton-X
- Reduction in absorbance relative to control (MDCK-WT cells; 0.1%, positive control): 90%

Molecule: Cc1cccc(C)c1OCC(=O)NC(Cc1ccccc1)C(CC(Cc1ccccc1)NC(=O)C(C(C)C)N1CCCNC1=O)OC(=O)C(NC(=O)CN)C(C)C (centres unmarked) [glycine-valine-LPV]
- Metabolic stability, fold increase relative to LPV (metabolizing enzymes [2]): 2.44 fold

Molecule: CN(CC(=O)O)C(=O)CN [GlySar] (H-Gly-[Sar]-OH)
- Reduction in [3H]-GlySar uptake (peptide transporters [3]): ~80%
- Reduction in [3H]-GlySar uptake (peptide transporters [4]): ~80%

- Vmax (metabolizing enzymes [6]): 8.1 ± 0.4 nmoles/min/mg protein
- Enhancement of [3H]-LPV uptake in the presence of unlabelled compound (P-gp): 3.2 fold
Molecule: Cc1cccc(C)c1OCC(=O)N[C@@H](Cc1ccccc1)[C@@H](O)C[C@H](Cc1ccccc1)NC(=O)[C@H](C(C)C)N1CCCNC1=O [LPV, lopinavir]
